Experimental data reported in ChEMBL document CHEMBL1129930, “Analogues of methotrexate in rheumatoid arthritis. 2. Effects of 5-deazaaminopterin, 5,10-dideazaaminopterin, and analogues on type II collagen-induced arthritis in mice” (J Med Chem, 1997).

Experiments:
Mus musculus [1] = assay: Tested for antiinflammatory activity on mouse type II collagen arthritis as Paw swelling of all animals in each group on day 23 at intraperitoneal dose of 3 mg/kg; assay type: functional
Mus musculus [2] = assay: Tested for antiinflammatory activity on mouse type II collagen arthritis as Paw swelling of all animals in each group on day 44 at intraperitoneal dose of 1.5 mg/kg; assay type: functional
Mus musculus [3] = assay: Incidence of disease (mouse type II collagen) was scored as the percentage of animals within each experimental group that exhibited joint or limb inflammation on day 37 at intraperitoneal dose of 6 mg/kg; assay type: functional
Mus musculus [4] = assay: Tested for antiinflammatory activity on mouse type II collagen arthritis as Paw swelling of all animals in each group on day 30 at intraperitoneal dose of 1.5 mg/kg; assay type: functional
Mus musculus [5] = assay: Tested for antiinflammatory activity on mouse type II collagen arthritis as Paw swelling of all animals in each group on day 37 at intraperitoneal dose of 1.5 mg/kg; assay type: functional
Mus musculus [6] = assay: Incidence of disease (mouse type II collagen) was scored as the percentage of animals within each experimental group that exhibited joint or limb inflammation on day 44 at intraperitoneal dose of 0.38 mg/kg; assay type: functional
Mus musculus [7] = assay: Incidence of disease (mouse type II collagen) was scored as the percentage of animals within each experimental group that exhibited joint or limb inflammation on day 30 at intraperitoneal dose of 0.38 mg/kg; assay type: functional
Mus musculus [8] = assay: Incidence of disease (mouse type II collagen) was scored as the percentage of animals within each experimental group that exhibited joint or limb inflammation on day 30 at intraperitoneal dose of 3 mg/kg; assay type: functional
Mus musculus [9] = assay: Incidence of disease (mouse type II collagen) was scored as the percentage of animals within each experimental group that exhibited joint or limb inflammation on day 37 at intraperitoneal dose of 0.75 mg/kg; assay type: functional
Mus musculus [10] = assay: Incidence of disease (mouse type II collagen) was scored as the percentage of animals within each experimental group that exhibited joint or limb inflammation on day 23 at intraperitoneal dose of 0.38 mg/kg; assay type: functional
Mus musculus [11] = assay: Tested for antiinflammatory activity on mouse type II collagen arthritis as Paw swelling of all animals in each group on day 30 at intraperitoneal dose of 3 mg/kg; assay type: functional
Mus musculus [12] = assay: Incidence of disease (mouse type II collagen) was scored as the percentage of animals within each experimental group that exhibited joint or limb inflammation on day 23 at intraperitoneal dose of 3 mg/kg; assay type: functional
Mus musculus [13] = assay: Incidence of disease (mouse type II collagen) was scored as the percentage of animals within each experimental group that exhibited joint or limb inflammation on day 23 at intraperitoneal dose of 0.75 mg/kg; assay type: functional
Mus musculus [14] = assay: Incidence of disease (mouse type II collagen) was scored as the percentage of animals within each experimental group that exhibited joint or limb inflammation on day 44 at intraperitoneal dose of 6 mg/kg; assay type: functional
[15] = Concentration required to inhibit the growth of chang liver cells.; assay type: functional; details: Homo sapiens
Mus musculus [16] = assay: Incidence of disease (mouse type II collagen) was scored as the percentage of animals within each experimental group that exhibited joint or limb inflammation on day 44 at intraperitoneal dose of 3 mg/kg; assay type: functional
Mus musculus [17] = assay: Tested for antiinflammatory activity on mouse type II collagen arthritis as Paw swelling of all animals in each group on day 37 at intraperitoneal dose of 0.38 mg/kg; assay type: functional
Mus musculus [18] = assay: Incidence of disease (mouse type II collagen) was scored as the percentage of animals within each experimental group that exhibited joint or limb inflammation on day 30 at intraperitoneal dose of 0.75 mg/kg; assay type: functional
Mus musculus [19] = assay: Tested for antiinflammatory activity on mouse type II collagen arthritis as Paw swelling of all animals in each group on day 44 at intraperitoneal dose of 0.75 mg/kg; assay type: functional
Mus musculus [20] = assay: Tested for antiinflammatory activity on mouse type II collagen arthritis as Paw swelling of all animals in each group on day 30 at intraperitoneal dose of 6 mg/kg; assay type: functional
Mus musculus [21] = assay: Incidence of disease (mouse type II collagen) was scored as the percentage of animals within each experimental group that exhibited joint or limb inflammation on day 23 at intraperitoneal dose of 1.5 mg/kg; assay type: functional
Mus musculus [22] = assay: Tested for antiinflammatory activity on mouse type II collagen arthritis as Paw swelling of all animals in each group on day 44 at intraperitoneal dose of 0.38 mg/kg; assay type: functional
Mus musculus [23] = assay: Tested for antiinflammatory activity on mouse type II collagen arthritis as Paw swelling of all animals in each group on day 23 at intraperitoneal dose of 6 mg/kg; assay type: functional
Mus musculus [24] = assay: Tested for antiinflammatory activity on mouse type II collagen arthritis as Paw swelling of all animals in each group on day 44 at intraperitoneal dose of 6 mg/kg; assay type: functional
Mus musculus [25] = assay: Tested for antiinflammatory activity on mouse type II collagen arthritis as Paw swelling of all animals in each group on day 37 at intraperitoneal dose of 6 mg/kg; assay type: functional
Mus musculus [26] = assay: Incidence of disease (mouse type II collagen) was scored as the percentage of animals within each experimental group that exhibited joint or limb inflammation on day 37 at intraperitoneal dose of 3 mg/kg; assay type: functional
Mus musculus [27] = assay: Tested for antiinflammatory activity on mouse type II collagen arthritis as Paw swelling of all animals in each group on day 44 at intraperitoneal dose of 3 mg/kg; assay type: functional
Mus musculus [28] = assay: Tested for antiinflammatory activity on mouse type II collagen arthritis as Paw swelling of all animals in each group on day 30 at intraperitoneal dose of 0.75 mg/kg; assay type: functional
Mus musculus [29] = assay: Incidence of disease (mouse type II collagen) was scored as the percentage of animals within each experimental group that exhibited joint or limb inflammation on day 23 at intraperitoneal dose of 6 mg/kg; assay type: functional
Mus musculus [30] = assay: Incidence of disease (mouse type II collagen) was scored as the percentage of animals within each experimental group that exhibited joint or limb inflammation on day 44 at intraperitoneal dose of 1.5 mg/kg; assay type: functional
Mus musculus [31] = assay: Tested for antiinflammatory activity on mouse type II collagen arthritis as Paw swelling of all animals in each group on day 37 at intraperitoneal dose of 3 mg/kg; assay type: functional
Mus musculus [32] = assay: Incidence of disease (mouse type II collagen) was scored as the percentage of animals within each experimental group that exhibited joint or limb inflammation on day 37 at intraperitoneal dose of 0.38 mg/kg; assay type: functional
Mus musculus [33] = assay: Tested for antiinflammatory activity on mouse type II collagen arthritis as Paw swelling of all animals in each group on day 23 at intraperitoneal dose of 0.38 mg/kg; assay type: functional
L1210 = assay: Concentration required to inhibit the growth of L1210 cells.; assay type: functional, cell-based; details: Mus musculus
Mus musculus [34] = assay: Incidence of disease (mouse type II collagen) was scored as the percentage of animals within each experimental group that exhibited joint or limb inflammation on day 30 at intraperitoneal dose of 1.5 mg/kg; assay type: functional
Mus musculus [35] = assay: Tested for antiinflammatory activity on mouse type II collagen arthritis as Paw swelling of all animals in each group on day 23 at intraperitoneal dose of 0.75 mg/kg; assay type: functional
Mus musculus [36] = assay: Tested for antiinflammatory activity on mouse type II collagen arthritis as Paw swelling of all animals in each group on day 30 at intraperitoneal dose of 0.38 mg/kg; assay type: functional
Mus musculus [37] = assay: Incidence of disease (mouse type II collagen) was scored as the percentage of animals within each experimental group that exhibited joint or limb inflammation on day 44 at intraperitoneal dose of 0.75 mg/kg; assay type: functional
Mus musculus [38] = assay: Tested for antiinflammatory activity on mouse type II collagen arthritis as Paw swelling of all animals in each group on day 37 at intraperitoneal dose of 0.75 mg/kg; assay type: functional
Mus musculus [39] = assay: Tested for antiinflammatory activity on mouse type II collagen arthritis as Paw swelling of all animals in each group on day 23 at intraperitoneal dose of 1.5 mg/kg; assay type: functional
Mus musculus [40] = assay: Incidence of disease (mouse type II collagen) was scored as the percentage of animals within each experimental group that exhibited joint or limb inflammation on day 37 at intraperitoneal dose of 1.5 mg/kg; assay type: functional
Mus musculus [41] = assay: Incidence of disease (mouse type II collagen) was scored as the percentage of animals within each experimental group that exhibited joint or limb inflammation on day 30 at intraperitoneal dose of 6 mg/kg; assay type: functional
Mus musculus [42] = assay: Tested for antiinflammatory activity on mouse type II collagen arthritis as Paw swelling of all animals in each group on day 37 at intraperitoneal dose of 1.50 mg/kg; assay type: functional; details: dose 1.5 mg/kg
Mus musculus [43] = assay: Tested for antiinflammatory activity on mouse type II collagen arthritis as Paw swelling of all animals in each group on day 44 at intraperitoneal dose of 1.50 mg/kg; assay type: functional; details: dose 1.5 mg/kg
Mus musculus [44] = assay: Tested for antiinflammatory activity on mouse type II collagen arthritis as Paw swelling of all animals in each group on day 30 at intraperitoneal dose of 1.50 mg/kg; assay type: functional; details: dose 1.5 mg/kg
Mus musculus [45] = assay: Tested for antiinflammatory activity on mouse type II collagen arthritis as Paw swelling of all animals in each group on day 23 at intraperitoneal dose of 1.50 mg/kg; assay type: functional; details: dose 1.5 mg/kg

CCCc1c(CNc2ccc(C(=O)NC(CCC(=O)O)C(=O)O)cc2)cnc2nc(N)nc(N)c12 (stereo not drawn)
Paw swelling (Mus musculus [1]): 2.12 mm | Paw swelling (Mus musculus [2]): 2.15 mm | Animals (Mus musculus [3]): 25% | Paw swelling (Mus musculus [4]): 2.14 mm | Paw swelling (Mus musculus [5]): 2.19 mm | Animals (Mus musculus [6]): 88% | Animals (Mus musculus [7]): 0% | Animals (Mus musculus [8]): 14% | Animals (Mus musculus [9]): 0% | Animals (Mus musculus [10]): 0% | Paw swelling (Mus musculus [11]): 2.24 mm | Animals (Mus musculus [12]): 0% | Animals (Mus musculus [13]): 0% | Animals (Mus musculus [14]): 0% | IC50 [15]: 8.2 nM | Animals (Mus musculus [16]): 29% | Paw swelling (Mus musculus [17]): 2.22 mm | Animals (Mus musculus [18]): 0% | Paw swelling (Mus musculus [19]): 2.22 mm | Paw swelling (Mus musculus [20]): 2.23 mm | Animals (Mus musculus [21]): 0% | Paw swelling (Mus musculus [22]): 2.57 mm | Paw swelling (Mus musculus [23]): 2.13 mm | Paw swelling (Mus musculus [24]): 2.11 mm | Paw swelling (Mus musculus [25]): 2.22 mm | Animals (Mus musculus [26]): 14% | Paw swelling (Mus musculus [27]): 2.2 mm | Paw swelling (Mus musculus [28]): 2.17 mm | Animals (Mus musculus [29]): 0% | Animals (Mus musculus [30]): 0% | Paw swelling (Mus musculus [31]): 2.23 mm | Animals (Mus musculus [32]): 75% | Paw swelling (Mus musculus [33]): 2.11 mm | IC50 (L1210): 6.5 nM | Animals (Mus musculus [34]): 0% | Paw swelling (Mus musculus [35]): 2.13 mm | Paw swelling (Mus musculus [36]): 2.13 mm | Animals (Mus musculus [37]): 50% | Paw swelling (Mus musculus [38]): 2.16 mm | Paw swelling (Mus musculus [39]): 2.12 mm | Animals (Mus musculus [40]): 0% | Animals (Mus musculus [41]): 25%

Nc1nc(N)c2cc(CNc3ccc(C(=O)NC(CCC(=O)O)C(=O)O)cc3)cnc2n1 (stereo not drawn)
Animals (Mus musculus [9]): 38% | Animals (Mus musculus [13]): 0% | Animals (Mus musculus [18]): 12% | Paw swelling (Mus musculus [19]): 2.28 mm | Animals (Mus musculus [21]): 0% | Paw swelling (Mus musculus [28]): 2.19 mm | Paw swelling (Mus musculus [42]): 2.17 mm | Animals (Mus musculus [30]): 25% | Paw swelling (Mus musculus [43]): 2.21 mm | Paw swelling (Mus musculus [44]): 2.16 mm | Animals (Mus musculus [34]): 12% | Paw swelling (Mus musculus [35]): 2.14 mm | Animals (Mus musculus [37]): 62% | Paw swelling (Mus musculus [38]): 2.23 mm | Paw swelling (Mus musculus [45]): 2.1 mm | Animals (Mus musculus [40]): 12%
